Source: patent US11970494B2, “6-heteroaryloxy benzimidazoles and azabenzimidazoles as JAK2 inhibitors” (Ajax Therapeutics, Inc., priority 2021, dated 2024)

target: T1, JAK3 (Homo sapiens, UniProt P52333); test: JAK Family Selectivity Assay: JAK3 vs JAK2 binding affinity; conditions: Kd JAK3 over Kd JAK2
T1 construct: made in house; host or cells: T7 phage in BL21-derived E. coli or HEK-293 cells
T1 sequence (P52333 1-1124): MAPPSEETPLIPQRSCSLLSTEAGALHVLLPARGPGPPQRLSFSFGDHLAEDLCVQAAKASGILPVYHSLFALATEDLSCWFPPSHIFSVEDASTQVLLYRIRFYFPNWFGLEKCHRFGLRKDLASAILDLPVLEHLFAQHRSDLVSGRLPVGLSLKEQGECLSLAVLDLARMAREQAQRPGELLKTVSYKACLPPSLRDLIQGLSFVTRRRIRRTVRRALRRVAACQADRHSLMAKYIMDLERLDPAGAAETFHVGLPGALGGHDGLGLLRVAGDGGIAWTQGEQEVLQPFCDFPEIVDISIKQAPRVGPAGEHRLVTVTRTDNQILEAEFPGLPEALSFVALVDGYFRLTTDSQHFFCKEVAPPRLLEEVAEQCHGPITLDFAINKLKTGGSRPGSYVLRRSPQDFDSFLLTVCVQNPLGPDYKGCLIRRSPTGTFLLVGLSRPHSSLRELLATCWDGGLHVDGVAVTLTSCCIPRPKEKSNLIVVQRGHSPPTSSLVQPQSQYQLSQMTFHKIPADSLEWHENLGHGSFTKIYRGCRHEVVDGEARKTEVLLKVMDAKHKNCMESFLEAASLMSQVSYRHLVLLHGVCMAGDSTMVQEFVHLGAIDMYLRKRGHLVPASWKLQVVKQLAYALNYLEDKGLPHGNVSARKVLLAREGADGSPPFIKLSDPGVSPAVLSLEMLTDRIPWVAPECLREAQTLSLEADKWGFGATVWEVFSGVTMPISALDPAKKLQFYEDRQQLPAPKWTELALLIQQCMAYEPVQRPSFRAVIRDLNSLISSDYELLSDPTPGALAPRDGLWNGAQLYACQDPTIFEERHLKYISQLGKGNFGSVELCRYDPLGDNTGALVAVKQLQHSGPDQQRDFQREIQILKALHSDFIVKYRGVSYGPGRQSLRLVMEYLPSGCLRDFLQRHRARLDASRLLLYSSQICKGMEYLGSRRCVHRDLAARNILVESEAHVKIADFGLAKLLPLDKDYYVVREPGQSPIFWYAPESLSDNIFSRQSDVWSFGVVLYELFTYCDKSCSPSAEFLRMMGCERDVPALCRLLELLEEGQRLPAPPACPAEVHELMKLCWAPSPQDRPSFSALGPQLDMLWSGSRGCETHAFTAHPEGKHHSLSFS
Method: Provided compounds are evaluated for selectivity by comparing their JAK2 binding affinity (Kd) in the above JAK2 Binding Assay with their binding affinity (Kd) for one or more other kinases. Binding affinity for other kinases is determined as follows: Kinase-tagged T7 phage strains are prepared in an E. coli host derived from the BL21 strain. E. coli are grown to log-phase and infected with T7 phage and incubated with shaking at 32° C. until lysis. The lysates are centrifuged and filtered to remove cell debris. The remaining kinases are produced in HEK-293 cells and subsequently tagged with DNA for qPCR detection. Streptavidin-coated magnetic beads are treated with biotinylated small molecule ligands for 30 minutes at room temperature to generate affinity resins for kinase assays. The liganded beads are blocked with excess biotin and washed with blocking buffer (SeaBlock (Pierce), 1% BSA, 0.05% Tween 20, 1 mM DTT) to remove unbound ligand and to reduce non-specific binding. Binding reactions are assembled by combining kinases, liganded affinity beads, and test compounds in 1× binding buffer (20% SeaBlock, 0.17×PBS, 0.05% Tween 20, 6 mM DTT). Test compounds are prepared as 111× stocks in 100% DMSO. Kds are determined using an 11-point 3-fold compound dilution series with three DMSO control points. All compounds for Kd measurements are distributed by acoustic transfer (non-contact dispensing) in 100% DMSO. The compounds are then diluted directly into the assays such that the final concentration of DMSO is 0.9%. All reactions are performed in polypropylene 384-well plate. Each has a final volume of 0.02 ml. The assay plates are incubated at room temperature with shaking for 1 hour and the affinity beads are washed with wash buffer (1×PBS, 0.05% Tween 20). The beads are then re-suspended in elution buffer (1× PBS, 0.05% Tween 20, 0.5 μM non-biotinylated affinity ligand) and incubated at room temperature with shaking for 30 minutes. The kinase concentration in the eluates is measured by qPCR. […] In some embodiments, provided compounds may be JAK2-selective over one or more of the following kinases: JAK1, JAK3, and Tyk2.

| SMILES | JAK3/JAK2 Kd/Kd ratio |
| --- | --- |
| COC(=O)Nc1cc(Oc2cnc3nc(Nc4cc(C(F)(F)F)cn(C)c4=O)n(C)c3c2C#N)ccn1 [Example I-3, Methyl (4-((7-cyano-1-methyl-2-((1-methyl-2-oxo-5-(trifluoromethyl)-1,2-dihydropyridin-3-yl)amino)-1H-imidazo[4,5-b]pyridin-6-yl)oxy)pyridin-2-yl)carbamate] | A (Kd/Kd ratio ≥1000) |
| CN(C)C(=O)Nc1cc(Oc2cnc3nc(Nc4cc(C(F)(F)F)cn(C)c4=O)n(C)c3c2C#N)ccn1 [Example I-4, 3-(4-((7-cyano-1-methyl-2-((1-methyl-2-oxo-5-(trifluoromethyl)-1,2-dihydropyridin-3-yl)amino)-1H-imidazo[4,5-b]pyridin-6-yl)oxy)pyridin-2-yl)-1,1-dimethylurea] | A (Kd/Kd ratio ≥1000) |
| COCC(=O)Nc1cc(Oc2cnc3nc(Nc4cc(C(F)(F)F)cn(C)c4=O)n(C)c3c2C#N)ccn1 [Example I-79, N-(4-((7-cyano-1-methyl-2-((1-methyl-2-oxo-5-(trifluoromethyl)-1,2-dihydropyridin-3-yl)amino)-1H-imidazo[4,5-b]pyridin-6-yl)oxy)pyridin-2-yl)-2-methoxyacetamide] | A (Kd/Kd ratio ≥1000) |
| COCCOC(=O)Nc1cc(Oc2cnc3nc(Nc4cc5n(n4)CCC54CCC4)n(C)c3c2C#N)ccn1 [Example I-62, 2-methoxyethyl(4-((7-cyano-2-((5′,6′-dihydrospiro[cyclobutane-1,4′-pyrrolo[1,2-b]pyrazol]-2′-yl)amino)-1-methyl-1H-imidazo[4,5-b]pyridin-6-yl)oxy)pyridin-2-yl)carbamate] | A (Kd/Kd ratio ≥1000) |
| CO[C@@H]1CCN(C(=O)Nc2cc(Oc3cnc4nc(Nc5cc6n(n5)CCC65CCC5)n(C)c4c3C#N)ccn2)C1 [Example I-60, (R)-N-(4-((7-cyano-2-((5′,6′-dihydrospiro[cyclobutane-1,4′-pyrrolo[1,2-b]pyrazol]-2′-yl)amino)-1-methyl-1H-imidazo[4,5-b]pyridin-6-yl)oxy)pyridin-2-yl)-3-methoxypyrrolidine-1-carboxamide] | B (Kd/Kd ratio <1000 and ≥300) |
| COC1CN(C(=O)Nc2cc(Oc3cnc4nc(Nc5cc6n(n5)CCC65CCC5)n(C)c4c3C#N)ccn2)C1 [Example I-61, N-(4-((7-cyano-2-((5′,6′-dihydrospiro[cyclobutane-1,4′-pyrrolo[1,2-b]pyrazol]-2′-yl)amino)-1-methyl-1H-imidazo[4,5-b]pyridin-6-yl)oxy)pyridin-2-yl)-3-methoxyazetidine carboxamide] | A (Kd/Kd ratio ≥1000) |
| COCC(=O)Nc1cc(Oc2cnc3nc(Nc4cc(C(F)(F)F)cn(C)c4=O)n(C)c3c2Cl)ccn1 [Example I-75, N-(4-((7-chloro-1-methyl-2-((1-methyl-2-oxo-5-(trifluoromethyl)-1,2-dihydropyridin-3-yl)amino)-1H-imidazo[4,5-b]pyridin-6-yl)oxy)pyridin-2-yl)-2-methoxyacetamide] | A (Kd/Kd ratio ≥1000) |
| Cn1cc(C(F)(F)F)cc(Nc2nc3ncc(Oc4ccnc(NC(=O)OCCN5CCOCC5)c4)c(C#N)c3n2C)c1=O [Example I-15, 2-Morpholinoethyl(4-((7-cyano-1-methyl-2-((1-methyl-2-oxo-5-(trifluoromethyl)-1,2-dihydropyridin-3-yl)amino)-1H-imidazo[4,5-b]pyridin-6-yl)oxy)pyridin-2-yl)carbamate] | A (Kd/Kd ratio ≥1000) |

Results, then the molecule that gave them:

| JAK3/JAK2 Kd/Kd ratio | SMILES |
| --- | --- |
| A (Kd/Kd ratio ≥1000) | Cn1cc(C(F)(F)F)cc(Nc2nc3ncc(Oc4ccnc(NC(=O)N5CCC5)c4)c(C#N)c3n2C)c1=O [Example I-7, N-(4-((7-cyano-1-methyl-2-((1-methyl-2-oxo-5-(trifluoromethyl)-1,2-dihydropyridin-3-yl)amino)-1H-imidazo[4,5-b]pyridin-6-yl)oxy)pyridin-2-yl)azetidine-1-carboxamide] |
| B (Kd/Kd ratio <1000 and ≥300) | Cn1c(Nc2cc3n(n2)CCC32CCC2)nc2ncc(Oc3ccnc(NC(=O)C4CC4)c3)c(C#N)c21 [Example I-122, N-(4-((7-cyano-2-((5′,6′-dihydrospiro[cyclobutane-1,4′-pyrrolo[1,2-b]pyrazol]-2′-yl)amino)-1-methyl-1H-imidazo[4,5-b]pyridin-6-yl)oxy)pyridin-2-yl)cyclopropanecarboxamide] |
| A (Kd/Kd ratio ≥1000) | CCN1CCN(Cc2ccc(Nc3nc4ccc(Oc5ccnc(NC(C)=O)c5)cc4n3C)cc2C(F)(F)F)CC1 [Example R-1, reference compound] |
| A (Kd/Kd ratio ≥1000) | CO[C@H]1CCN(C(=O)Nc2cc(Oc3cnc4nc(Nc5cc(C(F)(F)F)cn(C)c5=O)n(C)c4c3C#N)ccn2)C1 [Example I-14, (S)-N-(4-((7-cyano-1-methyl-2-((1-methyl-2-oxo-5-(trifluoromethyl)-1,2-dihydropyridin-3-yl)amino)-1H-imidazo[4,5-b]pyridin-6-yl)oxy)pyridin-2-yl)-3-methoxypyrrolidine-1-carboxamide] |
| A (Kd/Kd ratio ≥1000) | Cn1cc(C(F)(F)F)cc(Nc2nc3ncc(Oc4ccnc(NC(=O)O[C@@H]5CCOC5)c4)c(C#N)c3n2C)c1=O [Example I-18, (R)-Tetrahydrofuran-3-yl(4-((7-cyano-1-methyl-2-((1-methyl-2-oxo-5-(trifluoromethyl)-1,2-dihydropyridin-3-yl)amino)-1H-imidazo[4,5-b]pyridin-6-yl)oxy)pyridin-2-yl)carbamate] |
| A (Kd/Kd ratio ≥1000) | CC(=O)Nc1cc(Oc2cnc3nc(Nc4cc(C(F)(F)F)cn(C)c4=O)n(C)c3c2Cl)c(F)cn1 [Example I-88, N-(4-((7-chloro-1-methyl-2-((1-methyl-2-oxo-5-(trifluoromethyl)-1,2-dihydropyridin-3-yl)amino)-1H-imidazo[4,5-b]pyridin-6-yl)oxy)-5-fluoropyridin-2-yl)acetamide] |
